Test results as given in ChEMBL document CHEMBL1141535, “Benzothiazole based inhibitors of p38alpha MAP kinase” (Bioorg Med Chem Lett, 2008).

Legend:
[1] = target: Mitogen-activated protein kinase 14 (Homo sapiens, UniProt Q16539); test: Inhibition of p38alpha
PBMC = test: Inhibition of LPS-induced TNFalpha production in human PBMC; assay type: functional, cell-based
[2] = Half life in Sprague-Dawley rat at 2 mg/kg, iv; assay type: ADME, organism-based; design: dose 2 mg/kg, route intravenous; conditions: in vivo
[3] = Clearance in Sprague-Dawley rat at 2 mg/kg, iv; assay type: ADME, organism-based; design: dose 2 mg/kg, route intravenous; conditions: in vivo
[4] = AUC in Sprague-Dawley rat at 5 mg/kg, po; assay type: ADME, organism-based; design: dose 5 mg/kg, route oral; conditions: plasma
[5] = Bioavailability in Sprague-Dawley rat at 5 mg/kg, po; assay type: ADME, organism-based; conditions: in vivo
[6] = target: RAC-alpha serine/threonine-protein kinase (Homo sapiens) (UniProt P31749); test: Inhibition of Atk1 at 10 uM
[7] = target: RAC-beta serine/threonine-protein kinase (Homo sapiens) (UniProt P31751); test: Inhibition of Atk2 at 10 uM
[8] = target: RAC-gamma serine/threonine-protein kinase (Homo sapiens) (UniProt Q9Y243); test: Inhibition of Atk3 at 10 uM
[9] = target: Tyrosine-protein kinase Blk (Homo sapiens) (UniProt P51451); test: Inhibition of Blk at 10 uM
Tyrosine-protein kinase Blk (Homo sapiens), sequence (P51451 2-505 limits assumed): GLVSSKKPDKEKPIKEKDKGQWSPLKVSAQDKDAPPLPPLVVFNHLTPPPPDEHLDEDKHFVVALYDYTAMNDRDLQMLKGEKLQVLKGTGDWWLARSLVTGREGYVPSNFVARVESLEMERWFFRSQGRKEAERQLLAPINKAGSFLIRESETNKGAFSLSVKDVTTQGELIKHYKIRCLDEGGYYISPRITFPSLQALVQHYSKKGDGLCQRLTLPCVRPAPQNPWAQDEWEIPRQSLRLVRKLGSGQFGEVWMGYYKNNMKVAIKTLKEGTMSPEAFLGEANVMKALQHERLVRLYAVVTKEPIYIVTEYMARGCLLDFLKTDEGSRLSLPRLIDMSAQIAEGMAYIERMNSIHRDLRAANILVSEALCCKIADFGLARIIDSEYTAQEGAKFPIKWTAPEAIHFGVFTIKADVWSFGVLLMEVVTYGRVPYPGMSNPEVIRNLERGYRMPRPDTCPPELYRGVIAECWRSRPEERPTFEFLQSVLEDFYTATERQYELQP

[10] = target: Cytoplasmic tyrosine-protein kinase BMX (Homo sapiens) (UniProt P51813); test: Inhibition of Bmx at 10 uM
[11] = target: Protein-tyrosine kinase 6 (Homo sapiens) (UniProt Q13882); test: Inhibition of Brk at 10 uM
[12] = target: Tyrosine-protein kinase BTK (Homo sapiens) (UniProt Q06187); test: Inhibition of Btk at 10 uM
[13] = target: Calcium/calmodulin-dependent protein kinase type II subunit alpha (Homo sapiens) (UniProt Q9UQM7); test: Inhibition of CaMK2-alpha at 10 uM
[14] = target: Serine/threonine-protein kinase Chk1 (Homo sapiens) (UniProt O14757); test: Inhibition of CHK1 at 10 uM
Serine/threonine-protein kinase Chk1 (Homo sapiens), sequence (O14757 whole entry): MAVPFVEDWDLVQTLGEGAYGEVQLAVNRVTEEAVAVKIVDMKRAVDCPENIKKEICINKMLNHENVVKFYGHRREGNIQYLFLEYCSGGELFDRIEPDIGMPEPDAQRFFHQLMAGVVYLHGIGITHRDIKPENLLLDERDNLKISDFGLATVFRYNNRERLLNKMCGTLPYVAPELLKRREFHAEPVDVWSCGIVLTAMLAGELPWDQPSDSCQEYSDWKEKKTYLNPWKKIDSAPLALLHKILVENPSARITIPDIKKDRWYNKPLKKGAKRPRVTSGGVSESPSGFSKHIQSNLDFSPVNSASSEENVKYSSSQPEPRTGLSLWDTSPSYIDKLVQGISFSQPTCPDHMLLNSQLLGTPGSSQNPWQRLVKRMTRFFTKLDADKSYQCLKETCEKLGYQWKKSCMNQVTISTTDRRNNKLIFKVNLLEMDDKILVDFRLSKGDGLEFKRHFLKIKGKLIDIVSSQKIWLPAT

[15] = target: Serine/threonine-protein kinase Chk2 (Homo sapiens) (UniProt O96017); test: Inhibition of CHK2 at 10 uM
[16] = target: Casein kinase II subunit alpha (Homo sapiens) (UniProt P68400); test: Inhibition of CK2-alpha-1 at 10 uM
[17] = target: Hepatocyte growth factor receptor (Homo sapiens) (UniProt P08581); test: Inhibition of cMET at 10 uM
[18] = target: Tyrosine-protein kinase CSK (Homo sapiens) (UniProt P41240); test: Inhibition of Csk at 10 uM
[19] = target: Epidermal growth factor receptor (Homo sapiens) (UniProt P00533); test: Inhibition of EGFR at 10 uM
[20] = target: Ephrin type-A receptor 3 (Homo sapiens) (UniProt P29320); test: Inhibition of EphA3 at 10 uM
[21] = target: Mitogen-activated protein kinase 3 (Homo sapiens) (UniProt P27361); test: Inhibition of ERK1 at 10 uM
[22] = target: Mitogen-activated protein kinase 1 (Homo sapiens) (UniProt P28482); test: Inhibition of ERK2 at 10 uM
Mitogen-activated protein kinase 1 (Homo sapiens), sequence (P28482 whole entry): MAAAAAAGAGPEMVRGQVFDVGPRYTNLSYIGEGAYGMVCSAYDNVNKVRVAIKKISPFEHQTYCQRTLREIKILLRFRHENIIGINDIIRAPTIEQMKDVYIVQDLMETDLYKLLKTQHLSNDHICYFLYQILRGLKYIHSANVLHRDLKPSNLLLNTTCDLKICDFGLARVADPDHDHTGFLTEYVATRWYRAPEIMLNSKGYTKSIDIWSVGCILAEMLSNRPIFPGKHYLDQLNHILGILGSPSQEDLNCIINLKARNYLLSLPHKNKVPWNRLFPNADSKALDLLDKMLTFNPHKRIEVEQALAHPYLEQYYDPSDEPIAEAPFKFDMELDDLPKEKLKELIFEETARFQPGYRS

[23] = target: Tyrosine-protein kinase Fes/Fps (Homo sapiens) (UniProt P07332); test: Inhibition of FES at 10 uM
Tyrosine-protein kinase Fes/Fps (Homo sapiens), sequence (P07332 whole entry): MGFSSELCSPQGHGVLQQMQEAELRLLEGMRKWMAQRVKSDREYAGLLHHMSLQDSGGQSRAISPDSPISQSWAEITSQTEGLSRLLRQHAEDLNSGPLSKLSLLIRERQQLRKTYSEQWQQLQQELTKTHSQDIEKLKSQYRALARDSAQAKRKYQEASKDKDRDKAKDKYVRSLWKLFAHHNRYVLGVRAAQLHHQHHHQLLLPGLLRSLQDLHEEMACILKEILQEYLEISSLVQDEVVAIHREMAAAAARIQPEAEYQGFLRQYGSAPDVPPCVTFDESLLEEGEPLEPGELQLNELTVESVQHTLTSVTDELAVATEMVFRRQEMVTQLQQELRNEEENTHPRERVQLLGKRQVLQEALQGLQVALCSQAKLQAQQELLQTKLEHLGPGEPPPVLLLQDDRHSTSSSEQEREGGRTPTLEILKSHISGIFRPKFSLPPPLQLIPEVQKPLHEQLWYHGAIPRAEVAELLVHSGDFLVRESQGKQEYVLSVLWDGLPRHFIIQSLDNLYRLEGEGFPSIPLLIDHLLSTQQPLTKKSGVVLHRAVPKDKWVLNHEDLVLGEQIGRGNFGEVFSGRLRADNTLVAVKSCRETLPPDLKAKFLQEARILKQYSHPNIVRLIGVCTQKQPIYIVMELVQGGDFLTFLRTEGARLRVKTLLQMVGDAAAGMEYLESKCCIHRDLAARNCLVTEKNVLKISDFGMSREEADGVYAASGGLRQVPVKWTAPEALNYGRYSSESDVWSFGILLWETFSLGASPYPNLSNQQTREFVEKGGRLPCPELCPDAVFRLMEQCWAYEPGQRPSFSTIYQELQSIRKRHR

[24] = target: Fibroblast growth factor receptor 1 (Homo sapiens) (UniProt P11362); test: Inhibition of FGFR1 at 10 uM
[25] = target: Fibroblast growth factor receptor 2 (Homo sapiens) (UniProt P21802); test: Inhibition of FGFR2 at 10 uM
Fibroblast growth factor receptor 2 (Homo sapiens), sequence (P21802 22-821 limits assumed): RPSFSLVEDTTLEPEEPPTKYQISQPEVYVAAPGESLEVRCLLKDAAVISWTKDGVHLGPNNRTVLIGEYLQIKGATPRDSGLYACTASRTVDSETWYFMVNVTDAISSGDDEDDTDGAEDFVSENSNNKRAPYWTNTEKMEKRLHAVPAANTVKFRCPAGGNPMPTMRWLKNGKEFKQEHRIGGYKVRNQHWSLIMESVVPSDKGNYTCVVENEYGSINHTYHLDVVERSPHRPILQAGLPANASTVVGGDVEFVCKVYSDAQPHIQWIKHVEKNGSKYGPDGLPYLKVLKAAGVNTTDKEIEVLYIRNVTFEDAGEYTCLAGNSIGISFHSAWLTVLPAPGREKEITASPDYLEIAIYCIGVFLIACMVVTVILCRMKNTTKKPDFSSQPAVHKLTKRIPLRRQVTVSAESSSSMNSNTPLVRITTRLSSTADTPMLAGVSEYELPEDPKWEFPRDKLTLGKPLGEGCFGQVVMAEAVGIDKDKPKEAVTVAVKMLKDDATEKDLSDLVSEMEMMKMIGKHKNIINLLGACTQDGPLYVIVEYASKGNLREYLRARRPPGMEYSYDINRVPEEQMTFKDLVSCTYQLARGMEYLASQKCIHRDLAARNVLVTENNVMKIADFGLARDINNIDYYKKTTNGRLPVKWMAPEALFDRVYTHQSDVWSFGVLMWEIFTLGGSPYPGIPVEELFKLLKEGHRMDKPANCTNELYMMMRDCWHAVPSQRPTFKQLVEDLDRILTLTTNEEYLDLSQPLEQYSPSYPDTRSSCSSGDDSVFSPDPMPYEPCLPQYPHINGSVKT

[26] = target: Fibroblast growth factor receptor 3 (Homo sapiens) (UniProt P22607); test: Inhibition of FGFR3 at 10 uM
[27] = target: Fibroblast growth factor receptor 4 (Homo sapiens) (UniProt P22455); test: Inhibition of FGFR4 at 10 uM
[28] = target: Tyrosine-protein kinase Fyn (Homo sapiens) (UniProt P06241); test: Inhibition of Fyn at 10 uM
[29] = target: Glycogen synthase kinase-3 alpha (Homo sapiens) (UniProt P49840); test: Inhibition of GSK3-alpha at 10 uM
[30] = target: Glycogen synthase kinase-3 beta (Homo sapiens) (UniProt P49841); test: Inhibition of GSK3-beta at 10 uM
[31] = target: Tyrosine-protein kinase HCK (Homo sapiens) (UniProt P08631); test: Inhibition of Hck at 10 uM
[32] = target: Megakaryocyte-associated tyrosine-protein kinase (Homo sapiens) (UniProt P42679); test: Inhibition of Hyl at 10 uM
[33] = target: Insulin-like growth factor 1 receptor (Homo sapiens) (UniProt P08069); test: Inhibition of IGF1R at 10 uM
[34] = target: Interleukin-1 receptor-associated kinase 4 (Homo sapiens) (UniProt Q9NWZ3); test: Inhibition of IRAK4 at 10 uM
[35] = target: Tyrosine-protein kinase Lck (Homo sapiens) (UniProt P06239); test: Inhibition of Lck at 10 uM
[36] = target: Tyrosine-protein kinase Lyn (Homo sapiens) (UniProt P07948); test: Inhibition of Lyn A at 10 uM
Tyrosine-protein kinase Lyn (Homo sapiens), sequence (P07948 2-512 limits assumed): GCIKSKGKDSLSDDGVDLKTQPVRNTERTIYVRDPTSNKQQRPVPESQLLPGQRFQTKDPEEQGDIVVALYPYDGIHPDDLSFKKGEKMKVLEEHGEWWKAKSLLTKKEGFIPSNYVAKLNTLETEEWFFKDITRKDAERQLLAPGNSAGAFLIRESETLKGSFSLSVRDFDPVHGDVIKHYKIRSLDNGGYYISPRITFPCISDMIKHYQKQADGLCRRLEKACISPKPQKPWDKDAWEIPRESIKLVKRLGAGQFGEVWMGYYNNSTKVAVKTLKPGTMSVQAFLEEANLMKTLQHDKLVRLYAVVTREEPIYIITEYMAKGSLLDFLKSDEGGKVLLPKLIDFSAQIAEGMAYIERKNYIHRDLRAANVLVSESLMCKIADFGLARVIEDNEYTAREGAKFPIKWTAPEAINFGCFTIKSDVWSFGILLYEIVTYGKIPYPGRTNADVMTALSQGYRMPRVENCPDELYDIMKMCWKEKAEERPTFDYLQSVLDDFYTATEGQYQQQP

[37] = target: Tyrosine-protein kinase Lyn (Homo sapiens) (UniProt P07948); test: Inhibition of Lyn B at 10 uM
[38] = target: MAP kinase-activated protein kinase 2 (Homo sapiens) (UniProt P49137); test: Inhibition of MAPKAP-K2 at 10 uM
[39] = target: MAP kinase-activated protein kinase 3 (Homo sapiens) (UniProt Q16644); test: Inhibition of MAPKAP-K3 at 10 uM
[40] = target: MAP kinase-activated protein kinase 5 (Homo sapiens) (UniProt Q8IW41); test: Inhibition of MAPKAP-K5 at 10 uM
[41] = target: Serine/threonine-protein kinase Nek2 (Homo sapiens) (UniProt P51955); test: Inhibition of NEK2 at 10 uM
Serine/threonine-protein kinase Nek2 (Homo sapiens), sequence (P51955 whole entry): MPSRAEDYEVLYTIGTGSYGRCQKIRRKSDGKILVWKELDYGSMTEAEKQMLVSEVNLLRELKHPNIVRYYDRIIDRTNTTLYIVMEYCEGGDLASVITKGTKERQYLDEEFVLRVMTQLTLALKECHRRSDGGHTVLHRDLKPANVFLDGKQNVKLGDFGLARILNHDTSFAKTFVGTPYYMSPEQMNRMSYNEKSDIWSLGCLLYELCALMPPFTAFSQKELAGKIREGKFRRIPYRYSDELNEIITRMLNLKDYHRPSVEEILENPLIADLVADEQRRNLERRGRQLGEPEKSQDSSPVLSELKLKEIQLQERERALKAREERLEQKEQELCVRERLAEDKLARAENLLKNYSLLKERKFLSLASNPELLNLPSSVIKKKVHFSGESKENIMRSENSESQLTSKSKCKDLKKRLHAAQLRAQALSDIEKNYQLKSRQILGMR

[42] = target: Platelet-derived growth factor receptor beta (Homo sapiens) (UniProt P09619); test: Inhibition of PDGFRbeta at 10 uM
[43] = target: Phosphorylase b kinase gamma catalytic chain, liver/testis isoform (Homo sapiens) (UniProt P15735); test: Inhibition of PHKG2 at 10 uM
[44] = Inhibition of PKA at 10 uM
[45] = target: Protein kinase C alpha type (Homo sapiens) (UniProt P17252); test: Inhibition of PKCalpha at 10 uM
[46] = target: Protein kinase C beta type (Homo sapiens) (UniProt P05771); test: Inhibition of PKCbeta1 at 10 uM
Protein kinase C beta type (Homo sapiens), sequence (P05771 2-671 limits assumed): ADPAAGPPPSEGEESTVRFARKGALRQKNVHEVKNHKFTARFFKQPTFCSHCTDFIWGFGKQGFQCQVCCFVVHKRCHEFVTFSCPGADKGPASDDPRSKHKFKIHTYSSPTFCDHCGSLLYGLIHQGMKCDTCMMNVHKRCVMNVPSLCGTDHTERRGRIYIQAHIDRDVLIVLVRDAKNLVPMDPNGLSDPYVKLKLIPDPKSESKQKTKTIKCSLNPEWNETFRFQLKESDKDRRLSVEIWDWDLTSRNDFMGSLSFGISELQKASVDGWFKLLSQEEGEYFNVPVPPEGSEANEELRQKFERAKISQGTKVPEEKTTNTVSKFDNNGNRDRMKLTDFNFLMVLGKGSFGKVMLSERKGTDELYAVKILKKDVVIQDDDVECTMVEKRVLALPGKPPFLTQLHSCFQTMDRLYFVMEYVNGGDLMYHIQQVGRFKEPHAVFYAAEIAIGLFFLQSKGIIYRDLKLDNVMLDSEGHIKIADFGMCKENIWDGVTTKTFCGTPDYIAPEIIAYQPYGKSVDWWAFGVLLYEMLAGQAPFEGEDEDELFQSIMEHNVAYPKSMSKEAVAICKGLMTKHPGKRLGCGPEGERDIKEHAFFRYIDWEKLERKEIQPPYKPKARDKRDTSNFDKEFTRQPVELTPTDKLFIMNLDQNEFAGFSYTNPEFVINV

[47] = target: Protein kinase C beta type (Homo sapiens) (UniProt P05771); test: Inhibition of PKC-beta-2 at 10 uM
[48] = target: Protein kinase C gamma type (Homo sapiens) (UniProt P05129); test: Inhibition of PKCgamma at 10 uM
[49] = target: Protein kinase C delta type (Homo sapiens) (UniProt Q05655); test: Inhibition of PKCdelta at 10 uM
[50] = target: Ribosomal protein S6 kinase alpha-3 (Homo sapiens) (UniProt P51812); test: Inhibition of RSK2 at 10 uM
[51] = target: Proto-oncogene tyrosine-protein kinase Src (Homo sapiens) (UniProt P12931); test: Inhibition of Src at 10 uM
[52] = target: Tyrosine-protein kinase Yes (Homo sapiens) (UniProt P07947); test: Inhibition of Yes at 10 uM
[53] = target: Tyrosine-protein kinase ABL1 (Homo sapiens) (UniProt P00519); test: Inhibition of Abl at 10 uM
[54] = target: Tyrosine-protein kinase Fgr (Homo sapiens) (UniProt P09769); test: Inhibition of Fgr at 10 uM
[55] = target: Receptor-type tyrosine-protein kinase FLT3 (Homo sapiens) (UniProt P36888); test: Inhibition of Flt3 at 10 uM
[56] = target: Ephrin type-B receptor 4 (Homo sapiens) (UniProt P54760); test: Inhibition of EphB4 at 10 uM

Mitogen-activated protein kinase 14, sequence (Q16539 whole entry): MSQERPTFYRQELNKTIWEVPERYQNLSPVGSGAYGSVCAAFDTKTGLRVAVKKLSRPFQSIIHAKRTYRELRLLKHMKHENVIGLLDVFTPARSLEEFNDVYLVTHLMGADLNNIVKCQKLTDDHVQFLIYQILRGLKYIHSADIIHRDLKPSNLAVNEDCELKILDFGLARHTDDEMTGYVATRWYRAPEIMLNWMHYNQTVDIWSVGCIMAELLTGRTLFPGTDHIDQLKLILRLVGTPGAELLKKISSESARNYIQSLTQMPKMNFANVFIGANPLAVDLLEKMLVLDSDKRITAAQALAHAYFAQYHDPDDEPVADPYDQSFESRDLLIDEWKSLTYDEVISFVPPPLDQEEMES

## CC(C)Nc1nc2ccc(-c3ccnn3-c3ccc(Cl)cc3)cc2s1
[1]
  IC50: > 1000 nM

## CC[C@H](C)Nc1nc2ccc(-c3c(-c4ccccc4F)n[nH]c3N)cc2s1
[1]
  IC50: 5.5 nM
PBMC
  IC50: 77 nM

## CC[C@@H](C)Nc1nc2ccc(-c3[nH]cnc3-c3ccccc3F)cc2s1
[1]
  IC50: 1.6 nM
PBMC
  IC50: 13 nM

## CC(C)Nc1nc2ccc(-c3ccnn3-c3cccc(F)c3)cc2s1
[1]
  IC50: 33 nM
PBMC
  IC50: 171 nM

## Cc1ccccc1-n1nccc1-c1ccc2nc(NC(C)C)sc2c1
[1]
  IC50: 146 nM

## CC[C@@H](C)Nc1nc2ccc(-c3c(-c4ccccc4F)n[nH]c3N)cc2s1
[1]
  IC50: 3.2 nM
PBMC
  IC50: 39 nM
[2]
  half-life: 1.7 h
[3]
  clearance: 23.3 mL/min/kg
[4]
  AUC: 2.27 µM·h
[5]
  bioavailability: 24%
[6]
  inhibition: < 20%
[7]
  inhibition: < 20%
[8]
  inhibition: < 20%
[9]
  inhibition: < 20%
[10]
  inhibition: < 20%
[11]
  inhibition: < 20%
[12]
  inhibition: < 20%
[13]
  inhibition: < 20%
[14]
  inhibition: < 20%
[15]
  inhibition: < 20%
[16]
  inhibition: < 20%
[17]
  inhibition: < 20%
[18]
  inhibition: < 20%
[19]
  inhibition: < 20%
[20]
  inhibition: < 20%
[21]
  inhibition: < 20%
[22]
  inhibition: < 20%
[23]
  inhibition: < 20%
[24]
  inhibition: < 20%
[25]
  inhibition: < 20%
[26]
  inhibition: < 20%
[27]
  inhibition: < 20%
[28]
  inhibition: < 20%
[29]
  inhibition: < 20%
[30]
  inhibition: < 20%
[31]
  inhibition: < 20%
[32]
  inhibition: < 20%
[33]
  inhibition: < 20%
[34]
  inhibition: < 20%
[35]
  inhibition: < 20%
[36]
  inhibition: < 20%
[37]
  inhibition: < 20%
[38]
  inhibition: < 20%
[39]
  inhibition: < 20%
[40]
  inhibition: < 20%
[41]
  inhibition: < 20%
[42]
  inhibition: < 20%
[43]
  inhibition: < 20%
[44]
  inhibition: < 20%
[45]
  inhibition: < 20%
[46]
  inhibition: < 20%
[47]
  inhibition: < 20%
[48]
  inhibition: < 20%
[49]
  inhibition: < 20%
[50]
  inhibition: < 20%
[51]
  inhibition: < 20%
[52]
  inhibition: < 20%
[53]
  inhibition: 65%
[54]
  inhibition: 54%
[55]
  inhibition: 68%
[56]
  inhibition: < 20%

## CC[C@@H](C)Nc1nc2ccc(-c3c(-c4ccccc4F)nn(CC)c3N)cc2s1
[1]
  IC50: 17 nM
PBMC
  IC50: > 250 nM

## CC(C)Nc1nc2ccc(-c3ocnc3-c3ccccc3)cc2s1
[1]
  IC50: 21 nM
PBMC
  IC50: 96 nM

## Fc1ccccc1-c1ncoc1-c1ccc2ncsc2c1
[1]
  IC50: 47 nM
PBMC
  IC50: > 250 nM

## CC(C)Nc1nc2ccc(-c3[nH]cnc3-c3ccccc3F)cc2s1
[1]
  IC50: 3.3 nM
PBMC
  IC50: 35 nM

## CC(C)Nc1nc2ccc(-c3ccnn3-c3ccccc3)cc2s1
[1]
  IC50: 21 nM
PBMC
  IC50: 213 nM

## CC[C@H](C)Nc1nc2ccc(-c3ocnc3-c3ccccc3F)cc2s1
[1]
  IC50: 10 nM
PBMC
  IC50: 30 nM

## CC(C)Nc1nc2ccc(-c3ccnn3-c3ccc(F)cc3)cc2s1
[1]
  IC50: 48 nM
PBMC
  IC50: > 250 nM

## CC(C)Nc1nc2ccc(-c3ccnn3-c3ccccc3F)cc2s1
[1]
  IC50: 20 nM
PBMC
  IC50: 249 nM

## CCNc1nc2ccc(-c3ocnc3-c3ccccc3F)cc2s1
[1]
  IC50: 12 nM
PBMC
  IC50: 167 nM

## CC(C)Nc1nc2ccc(-c3ccnn3-c3ccccc3Cl)cc2s1
[1]
  IC50: 175 nM

## Cc1ccc(-n2nccc2-c2ccc3nc(NC(C)C)sc3c2)cc1
[1]
  IC50: > 1000 nM

## Nc1nc2ccc(-c3ocnc3-c3ccccc3F)cc2s1
[1]
  IC50: 16 nM
PBMC
  IC50: 247 nM

## CC(C)Nc1nc2ccc(-c3ccnn3-c3cccc(Cl)c3)cc2s1
[1]
  IC50: 72 nM
PBMC
  IC50: 232 nM

## CC(C)Nc1nc2ccc(-c3[nH]cnc3-c3ccccc3)cc2s1
[1]
  IC50: 7.1 nM
PBMC
  IC50: 107 nM

## CC(C)Nc1nc2ccc(-c3ocnc3-c3ccccc3F)cc2s1
PBMC
  IC50: 40 nM

## CC[C@H](C)Nc1nc2ccc(-c3[nH]cnc3-c3ccccc3F)cc2s1
[1]
  IC50: 2.7 nM
PBMC
  IC50: 20 nM

## CC[C@@H](C)Nc1nc2ccc(-c3ocnc3-c3ccccc3F)cc2s1
[1]
  IC50: 6.5 nM
PBMC
  IC50: 27 nM

## CC[C@@H](C)Nc1nc2ccc(-c3c(-c4ccccc4F)nn(C)c3N)cc2s1
[1]
  IC50: 11 nM
PBMC
  IC50: 118 nM

## Cc1cccc(-n2nccc2-c2ccc3nc(NC(C)C)sc3c2)c1
[1]
  IC50: 33 nM
PBMC
  IC50: 171 nM

## CC(C)Nc1nc2ccc(-c3c(-c4ccccc4F)n[nH]c3N)cc2s1
[1]
  IC50: 3.7 nM
PBMC
  IC50: 51 nM
